Assay: xn = mol fraction of the nth substance listed

N[C@@H](Cc1c[nH]cn1)C(=O)O + O
Settings | viscosity [mPa·s]
293.15 K, 101 kPa, x1 = 0.005413 | 1.128
298.15 K, 100 kPa, x1 = 0.000193 | 0.8927
298.15 K, 100 kPa, x1 = 0.00027 | 0.898
298.15 K, 100 kPa, x1 = 0.00036 | 0.899
298.15 K, 100 kPa, x1 = 0.000403 | 0.895
298.15 K, 100 kPa, x1 = 0.00063 | 0.904
298.15 K, 100 kPa, x1 = 0.00072 | 0.907
298.15 K, 100 kPa, x1 = 0.00074 | 0.8987
298.15 K, 100 kPa, x1 = 0.00081 | 0.907
298.15 K, 100 kPa, x1 = 0.00099 | 0.91
298.15 K, 100 kPa, x1 = 0.00117 | 0.913
298.15 K, 100 kPa, x1 = 0.00171 | 0.921
298.15 K, 100 kPa, x1 = 0.001798 | 0.9349
298.15 K, 100 kPa, x1 = 0.0018 | 0.927
298.15 K, 100 kPa, x1 = 0.002157 | 0.9434
298.15 K, 100 kPa, x1 = 0.002516 | 0.9518
298.15 K, 100 kPa, x1 = 0.002876 | 0.9604
298.15 K, 101 kPa, x1 = 0.00027 | 0.898
298.15 K, 101 kPa, x1 = 0.00063 | 0.9034
298.15 K, 101 kPa, x1 = 0.0013 | 0.9127
298.15 K, 101 kPa, x1 = 0.00207 | 0.9208
298.15 K, 101.3 kPa, x1 = 0.0004504 | 0.898
298.15 K, 101.3 kPa, x1 = 0.0008971 | 0.903
298.15 K, 101.3 kPa, x1 = 0.001791 | 0.913
298.15 K, 101.3 kPa, x1 = 0.002688 | 0.924
303.15 K, 100 kPa, x1 = 0.00036 | 0.804
303.15 K, 100 kPa, x1 = 0.00045 | 0.807
303.15 K, 100 kPa, x1 = 0.00054 | 0.807
303.15 K, 100 kPa, x1 = 0.00108 | 0.817
303.15 K, 100 kPa, x1 = 0.00126 | 0.821
303.15 K, 100 kPa, x1 = 0.00144 | 0.827
303.15 K, 100 kPa, x1 = 0.00153 | 0.824
303.15 K, 100 kPa, x1 = 0.00162 | 0.827
303.15 K, 100 kPa, x1 = 0.002157 | 0.8407
303.15 K, 100 kPa, x1 = 0.002516 | 0.8474
303.15 K, 100 kPa, x1 = 0.002876 | 0.8544
303.15 K, 101 kPa, x1 = 0.00027 | 0.8035
303.15 K, 101 kPa, x1 = 0.00063 | 0.8079
303.15 K, 101 kPa, x1 = 0.0013 | 0.8152
303.15 K, 101 kPa, x1 = 0.00243 | 0.8255
303.15 K, 101 kPa, x1 = 0.003563 | 0.8636
303.15 K, 101 kPa, x1 = 0.005413 | 0.8992
303.15 K, 101.3 kPa, x1 = 0.0004504 | 0.804
303.15 K, 101.3 kPa, x1 = 0.002239 | 0.824
308.15 K, 100 kPa, x1 = 0.00027 | 0.727
308.15 K, 100 kPa, x1 = 0.00054 | 0.727
308.15 K, 100 kPa, x1 = 0.00135 | 0.743
308.15 K, 100 kPa, x1 = 0.00143 | 0.74
308.15 K, 100 kPa, x1 = 0.00144 | 0.7434
308.15 K, 100 kPa, x1 = 0.00171 | 0.748
308.15 K, 100 kPa, x1 = 0.002157 | 0.7543
308.15 K, 100 kPa, x1 = 0.002516 | 0.7596
308.15 K, 100 kPa, x1 = 0.002876 | 0.7651
308.15 K, 101 kPa, x1 = 0.00027 | 0.724
308.15 K, 101 kPa, x1 = 0.00063 | 0.7274
308.15 K, 101 kPa, x1 = 0.00099 | 0.7304
308.15 K, 101 kPa, x1 = 0.0013 | 0.7334
308.15 K, 101 kPa, x1 = 0.00243 | 0.7421
308.15 K, 101.3 kPa, x1 = 0.0004504 | 0.723
308.15 K, 101.3 kPa, x1 = 0.0008971 | 0.728
308.15 K, 101.3 kPa, x1 = 0.001346 | 0.733
308.15 K, 101.3 kPa, x1 = 0.002239 | 0.743
308.15 K, 101.3 kPa, x1 = 0.002688 | 0.748
313.15 K, 100 kPa, x1 = 0.000358 | 0.6589
313.15 K, 100 kPa, x1 = 0.00036 | 0.657
313.15 K, 100 kPa, x1 = 0.00099 | 0.672
313.15 K, 100 kPa, x1 = 0.00171 | 0.682
313.15 K, 100 kPa, x1 = 0.001798 | 0.6769
313.15 K, 100 kPa, x1 = 0.002516 | 0.6853
313.15 K, 100 kPa, x1 = 0.002876 | 0.6895
313.15 K, 101 kPa, x1 = 0.00027 | 0.6566
313.15 K, 101 kPa, x1 = 0.00063 | 0.6592
313.15 K, 101 kPa, x1 = 0.00092 | 0.6773
313.15 K, 101 kPa, x1 = 0.00243 | 0.6716
313.15 K, 101 kPa, x1 = 0.003563 | 0.7141
313.15 K, 101.3 kPa, x1 = 0.0004504 | 0.657
313.15 K, 101.3 kPa, x1 = 0.001791 | 0.672
313.15 K, 101.3 kPa, x1 = 0.002239 | 0.677
313.15 K, 101.3 kPa, x1 = 0.002688 | 0.682
318.15 K, 100 kPa, x1 = 0.00027 | 0.603
318.15 K, 100 kPa, x1 = 0.000358 | 0.6026
318.15 K, 100 kPa, x1 = 0.000718 | 0.6065
318.15 K, 100 kPa, x1 = 0.00099 | 0.614
318.15 K, 100 kPa, x1 = 0.00108 | 0.61
318.15 K, 100 kPa, x1 = 0.00117 | 0.616
318.15 K, 100 kPa, x1 = 0.00135 | 0.618
318.15 K, 100 kPa, x1 = 0.00144 | 0.6135
318.15 K, 100 kPa, x1 = 0.00171 | 0.623
318.15 K, 100 kPa, x1 = 0.002157 | 0.62
318.15 K, 100 kPa, x1 = 0.002516 | 0.6232
318.15 K, 100 kPa, x1 = 0.002876 | 0.6262
318.15 K, 101.3 kPa, x1 = 0.0004504 | 0.598
318.15 K, 101.3 kPa, x1 = 0.0008971 | 0.603
318.15 K, 101.3 kPa, x1 = 0.001791 | 0.613
318.15 K, 101.3 kPa, x1 = 0.002239 | 0.618
318.15 K, 101.3 kPa, x1 = 0.002688 | 0.623
323.15 K, 101 kPa, x1 = 0.00092 | 0.5791
323.15 K, 101 kPa, x1 = 0.001804 | 0.5862
323.15 K, 101 kPa, x1 = 0.003563 | 0.6075
323.15 K, 101 kPa, x1 = 0.005413 | 0.6374

Source: the CheMixHub viscosity set
